The source made the active and inactive calls.
Legend:
[1] = NIH-3T3 fibroblast cytotoxicity, dose response, cytotoxicity control, cell-based, fluorescence, Alamar Blue, secondary assay (AID 2327); assay type: functional;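 also: NIH-3T3 mouse fibroblasts cultured with fluconazole at 8 µg/mL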
[2] = fluconazole-exposed Candida albicans growth modulators – fluorescence, retest, confirmation (AID 2467); assay type: functional, cell-based
[3] = antiviral protection against BTV-induced cell death – arbovirus, BSR cells, confirmation (AID 1250); assay type: functional;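 also: protection from viral cytopathic effect measured as cell viability by ATP luminescence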
[4] = Trypanosoma cruzi growth suppression in host cells – NIH3T3 host cells, beta-gal luminescence, confirmation (AID 2044); assay type: functional, cell-based;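 also: intracellular parasites grown in NIH/3T3 mouse fibroblasts as host cells; luminescent beta-galactosidase reporter signal from transgenic T. cruzi replicating inside host cells; inhibitors lower the luminescence signal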
[5] = target: Voltage-gated inwardly rectifying potassium channel KCNH2 (Homo sapiens, UniProt Q12809); experiment: concentration-dependent hERG rescue from blockers – cell-based, thallium flux, dose response (AID 2121); assay type: ADME
[6] = NIH3T3 cell viability loss – ATP luminescence, mouse fibroblasts, counter-screen, dose response (AID 2010); assay type: functional, cell-based;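 also: cells exposed to compound for about 90 hours before reading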
[7] = target: Peroxisome proliferator-activated receptor gamma/Nuclear receptor coactivator 2 (Homo sapiens, UniProt P37231); assay type: functional;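 also: agonist potency for raising coactivator recruitment to the receptor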
[8] = target: Peroxisome proliferator-activated receptor gamma/Nuclear receptor coactivator 1 (Homo sapiens, UniProt P37231); assay type: functional;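 also: agonist potency as compounds enhance coactivator SRC-1 recruitment to PPARgamma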
[9] = target: Peroxisome proliferator-activated receptor gamma/Nuclear receptor coactivator 3 (Homo sapiens, UniProt P37231); assay type: functional;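 also: agonist potency for raising coactivator recruitment to the receptor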
[10] = target: T1, Heat shock factor protein 1 (Mus musculus, UniProt P38532); experiment: enhancement of HSF1-driven luciferase signal – cell-based, NIH3T3, luminescence, dose retest, confirmation (AID 435004); assay type: functional;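 also: stress induced by proteasome inhibitor MG132 added 30 min after compound; luciferase reporter driven by HSF1 response element in NIH3T3 cells; actives raise luminescence as potentiators of the MG132 stress response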
T1 sequence (P38532 whole entry): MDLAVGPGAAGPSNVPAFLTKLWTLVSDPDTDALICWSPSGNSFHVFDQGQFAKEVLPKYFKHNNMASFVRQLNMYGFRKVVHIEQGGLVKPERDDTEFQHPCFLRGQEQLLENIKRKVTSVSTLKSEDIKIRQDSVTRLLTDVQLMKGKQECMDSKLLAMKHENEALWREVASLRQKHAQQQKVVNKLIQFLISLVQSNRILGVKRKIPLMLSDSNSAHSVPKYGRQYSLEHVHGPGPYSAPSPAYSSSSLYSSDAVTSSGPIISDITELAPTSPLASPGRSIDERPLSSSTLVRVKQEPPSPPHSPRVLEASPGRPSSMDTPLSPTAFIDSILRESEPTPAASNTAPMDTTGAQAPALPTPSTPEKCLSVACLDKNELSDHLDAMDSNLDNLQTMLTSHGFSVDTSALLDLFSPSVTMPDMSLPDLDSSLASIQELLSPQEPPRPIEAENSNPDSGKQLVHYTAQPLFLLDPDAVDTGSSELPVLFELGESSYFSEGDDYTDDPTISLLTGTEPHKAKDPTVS

[11] = target: Sphingosine 1-phosphate receptor 2 (Homo sapiens, UniProt O95136); experiment: Dose Response Cell Based Assay for Agonists of the S1P2 Receptor of Purchased Analogues. [Related pubchem assays: 729, 843, 854, 736 ]; assay type: functional
[12] = target: T2, Bcl-2-like protein 10 (Homo sapiens, UniProt Q9HD36); experiment: Bcl-B/TR3 peptide binding disruption – biochemical, fluorescence polarization, FITC-TR3 peptide, selectivity assay for Bfl-1 inhibitor project, primary screen (AID 748);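 also: fluorescence polarization from a fluorescein-labelled TR3 peptide binding purified Bcl-B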
T2 sequence (Q9HD36 whole entry): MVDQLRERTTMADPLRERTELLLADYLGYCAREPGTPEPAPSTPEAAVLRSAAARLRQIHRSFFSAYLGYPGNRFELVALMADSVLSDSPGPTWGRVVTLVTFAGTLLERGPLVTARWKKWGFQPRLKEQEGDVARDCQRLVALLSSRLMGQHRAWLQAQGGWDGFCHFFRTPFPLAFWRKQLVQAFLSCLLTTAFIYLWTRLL

[13] = target: T3, Alkaline phosphatase, tissue-nonspecific isozyme (Homo sapiens, UniProt P05186)
T3 sequence (P05186 whole entry): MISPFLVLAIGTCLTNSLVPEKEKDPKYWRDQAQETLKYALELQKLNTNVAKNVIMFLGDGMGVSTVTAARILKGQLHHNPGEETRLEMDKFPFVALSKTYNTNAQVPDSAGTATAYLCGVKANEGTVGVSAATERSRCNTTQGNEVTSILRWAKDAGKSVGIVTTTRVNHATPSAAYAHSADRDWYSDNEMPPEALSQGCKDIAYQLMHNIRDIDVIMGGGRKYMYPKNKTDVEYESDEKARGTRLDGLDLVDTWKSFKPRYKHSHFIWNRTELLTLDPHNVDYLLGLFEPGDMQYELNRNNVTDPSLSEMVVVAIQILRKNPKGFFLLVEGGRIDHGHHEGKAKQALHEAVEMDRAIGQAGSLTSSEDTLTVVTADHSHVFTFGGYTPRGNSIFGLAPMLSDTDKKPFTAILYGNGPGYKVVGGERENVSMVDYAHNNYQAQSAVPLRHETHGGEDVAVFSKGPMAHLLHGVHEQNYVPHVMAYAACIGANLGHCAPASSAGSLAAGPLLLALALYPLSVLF

[14] = target: T4, Short transient receptor potential channel 4 (Mus musculus, UniProt Q9QUQ5); experiment: calcium entry via TRPC4 opening agents – cell-based, HEK293 TRPC4/mu-opioid, Fluo-4 calcium, dose response (AID 434937); assay type: functional
T4 sequence (Q9QUQ5 whole entry): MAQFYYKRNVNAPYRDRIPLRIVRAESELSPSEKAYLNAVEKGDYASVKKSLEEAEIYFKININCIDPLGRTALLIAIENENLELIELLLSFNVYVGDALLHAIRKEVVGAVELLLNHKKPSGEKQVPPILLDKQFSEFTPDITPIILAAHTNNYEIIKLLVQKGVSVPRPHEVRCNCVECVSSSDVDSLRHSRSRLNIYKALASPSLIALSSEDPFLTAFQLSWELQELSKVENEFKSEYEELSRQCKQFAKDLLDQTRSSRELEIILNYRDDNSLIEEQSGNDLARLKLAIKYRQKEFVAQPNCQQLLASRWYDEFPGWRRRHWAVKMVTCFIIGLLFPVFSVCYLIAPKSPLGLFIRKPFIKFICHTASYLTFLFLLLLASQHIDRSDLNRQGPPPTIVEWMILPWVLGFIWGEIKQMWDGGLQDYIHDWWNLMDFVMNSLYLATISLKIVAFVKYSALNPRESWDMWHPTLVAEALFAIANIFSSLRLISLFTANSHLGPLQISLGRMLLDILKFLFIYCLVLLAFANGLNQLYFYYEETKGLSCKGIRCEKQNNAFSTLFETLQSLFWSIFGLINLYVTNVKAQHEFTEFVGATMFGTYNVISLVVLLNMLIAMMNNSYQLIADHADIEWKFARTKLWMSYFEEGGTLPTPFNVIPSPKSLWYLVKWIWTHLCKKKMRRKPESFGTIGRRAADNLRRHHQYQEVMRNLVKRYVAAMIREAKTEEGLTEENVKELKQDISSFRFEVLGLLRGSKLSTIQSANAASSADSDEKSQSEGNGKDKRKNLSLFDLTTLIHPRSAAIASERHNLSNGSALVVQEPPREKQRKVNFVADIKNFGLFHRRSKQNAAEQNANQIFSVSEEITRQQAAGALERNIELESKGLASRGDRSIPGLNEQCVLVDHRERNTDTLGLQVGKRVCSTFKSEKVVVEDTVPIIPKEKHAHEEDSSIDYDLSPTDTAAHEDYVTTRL

[15] = tested on: HeLa; experiment: viability loss in HeLa cells – cell-based, 24 h, cherry-picked samples, cytotoxicity control, dose response (AID 504726); assay type: functional; conditions: Homo sapiens;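 also: potency for cytotoxicity as loss of luminescence signal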
[16] = tested on: Salmon testes DNA; experiment: acridine orange-DNA binding displacement – biochemical, fluorescence polarization, cherry-picked samples, set 2, artefact control for KSHV LANA DNA-binding inhibitor project, dose response (AID 504727); parameters: species or system Salmonidae
[17] = target: T5, Cytochrome P450 2D6 (Homo sapiens, UniProt P10635); experiment: qHTS Assay for Inhibitors and Substrates of Cytochrome P450 2D6. [Related pubchem assays: 410 ]; assay type: ADME; conditions: read-out: Potency
[18] = target: T5, Cytochrome P450 2D6

T5 sequence (P10635 whole entry): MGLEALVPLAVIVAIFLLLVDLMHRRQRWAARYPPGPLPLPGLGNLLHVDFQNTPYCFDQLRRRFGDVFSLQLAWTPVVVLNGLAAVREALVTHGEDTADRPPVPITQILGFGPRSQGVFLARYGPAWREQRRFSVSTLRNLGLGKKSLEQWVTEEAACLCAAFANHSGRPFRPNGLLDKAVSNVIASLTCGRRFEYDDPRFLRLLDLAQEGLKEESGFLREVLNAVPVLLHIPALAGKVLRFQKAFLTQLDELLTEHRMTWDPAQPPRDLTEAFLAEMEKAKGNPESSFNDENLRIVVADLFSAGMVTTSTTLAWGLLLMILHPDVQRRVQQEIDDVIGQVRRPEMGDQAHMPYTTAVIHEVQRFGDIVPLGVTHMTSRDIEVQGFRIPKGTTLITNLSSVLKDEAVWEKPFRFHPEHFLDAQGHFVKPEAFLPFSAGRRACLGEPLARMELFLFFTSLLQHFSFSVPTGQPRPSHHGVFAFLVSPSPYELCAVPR
Chain of Sphingosine 1-phosphate receptor 2 (O95136 whole entry): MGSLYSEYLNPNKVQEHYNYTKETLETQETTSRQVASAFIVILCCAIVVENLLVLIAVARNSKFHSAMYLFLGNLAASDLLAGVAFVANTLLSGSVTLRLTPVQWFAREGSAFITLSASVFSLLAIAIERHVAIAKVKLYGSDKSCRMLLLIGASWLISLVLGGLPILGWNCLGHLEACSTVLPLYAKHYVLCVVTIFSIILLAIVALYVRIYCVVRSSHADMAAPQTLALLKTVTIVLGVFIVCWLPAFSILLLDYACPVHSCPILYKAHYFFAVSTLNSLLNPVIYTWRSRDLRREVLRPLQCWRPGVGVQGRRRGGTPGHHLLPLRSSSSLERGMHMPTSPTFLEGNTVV
Chain of Peroxisome proliferator-activated receptor gamma/Nuclear receptor coactivator 2 (P37231 whole entry): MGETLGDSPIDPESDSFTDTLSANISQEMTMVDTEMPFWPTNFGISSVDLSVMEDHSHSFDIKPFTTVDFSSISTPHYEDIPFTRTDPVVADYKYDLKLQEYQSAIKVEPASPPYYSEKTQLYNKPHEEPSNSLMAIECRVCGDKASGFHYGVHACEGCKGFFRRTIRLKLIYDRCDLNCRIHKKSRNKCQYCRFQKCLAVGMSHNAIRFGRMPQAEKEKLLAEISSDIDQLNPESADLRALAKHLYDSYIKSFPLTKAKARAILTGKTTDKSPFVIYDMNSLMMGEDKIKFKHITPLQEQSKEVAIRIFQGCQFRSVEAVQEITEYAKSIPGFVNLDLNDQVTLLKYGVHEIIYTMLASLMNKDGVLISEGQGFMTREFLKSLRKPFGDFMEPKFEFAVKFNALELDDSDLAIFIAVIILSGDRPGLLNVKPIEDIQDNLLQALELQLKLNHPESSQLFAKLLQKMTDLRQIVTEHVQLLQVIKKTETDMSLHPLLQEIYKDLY
Chain of Peroxisome proliferator-activated receptor gamma/Nuclear receptor coactivator 2 (Q15596 whole entry, further chain): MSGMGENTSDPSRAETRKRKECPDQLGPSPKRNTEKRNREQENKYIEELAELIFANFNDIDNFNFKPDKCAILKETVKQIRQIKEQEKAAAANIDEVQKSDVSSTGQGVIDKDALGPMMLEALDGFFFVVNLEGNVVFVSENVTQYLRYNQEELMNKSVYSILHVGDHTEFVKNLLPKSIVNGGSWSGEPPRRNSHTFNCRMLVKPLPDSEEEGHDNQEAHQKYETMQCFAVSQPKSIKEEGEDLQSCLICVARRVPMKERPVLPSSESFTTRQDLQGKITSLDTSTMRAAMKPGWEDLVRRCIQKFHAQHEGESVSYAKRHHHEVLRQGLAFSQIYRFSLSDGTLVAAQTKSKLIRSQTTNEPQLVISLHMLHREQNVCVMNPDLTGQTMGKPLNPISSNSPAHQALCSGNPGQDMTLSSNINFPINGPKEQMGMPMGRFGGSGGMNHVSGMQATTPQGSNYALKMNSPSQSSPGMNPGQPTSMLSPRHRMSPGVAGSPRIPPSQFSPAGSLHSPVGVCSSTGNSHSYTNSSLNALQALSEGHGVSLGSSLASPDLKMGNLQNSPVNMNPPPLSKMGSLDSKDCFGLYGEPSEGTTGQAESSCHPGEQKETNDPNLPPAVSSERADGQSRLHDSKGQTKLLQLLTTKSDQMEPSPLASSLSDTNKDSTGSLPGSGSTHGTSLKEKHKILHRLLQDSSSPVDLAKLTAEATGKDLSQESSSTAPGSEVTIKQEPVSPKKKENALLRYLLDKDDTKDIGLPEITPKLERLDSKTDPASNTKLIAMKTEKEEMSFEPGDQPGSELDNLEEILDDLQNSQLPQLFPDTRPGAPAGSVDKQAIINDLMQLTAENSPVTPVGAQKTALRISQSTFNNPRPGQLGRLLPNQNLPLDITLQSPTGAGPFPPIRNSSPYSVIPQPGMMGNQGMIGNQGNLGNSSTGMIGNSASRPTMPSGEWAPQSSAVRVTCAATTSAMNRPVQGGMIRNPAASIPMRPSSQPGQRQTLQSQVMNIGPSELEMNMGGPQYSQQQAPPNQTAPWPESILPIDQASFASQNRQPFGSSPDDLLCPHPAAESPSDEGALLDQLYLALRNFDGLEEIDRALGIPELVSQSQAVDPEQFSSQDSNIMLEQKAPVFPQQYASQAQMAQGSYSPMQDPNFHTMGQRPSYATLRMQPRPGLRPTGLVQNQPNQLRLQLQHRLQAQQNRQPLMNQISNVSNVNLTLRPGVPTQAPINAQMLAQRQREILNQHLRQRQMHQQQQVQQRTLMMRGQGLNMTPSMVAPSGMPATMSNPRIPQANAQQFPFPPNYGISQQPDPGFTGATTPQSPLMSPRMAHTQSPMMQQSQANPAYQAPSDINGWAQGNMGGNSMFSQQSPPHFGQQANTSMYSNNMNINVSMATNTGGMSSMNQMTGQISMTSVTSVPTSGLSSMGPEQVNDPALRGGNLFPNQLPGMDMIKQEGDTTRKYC
Chain of Peroxisome proliferator-activated receptor gamma/Nuclear receptor coactivator 1 (P37231 whole entry): as the sequence (P37231 whole entry) above
Chain of Peroxisome proliferator-activated receptor gamma/Nuclear receptor coactivator 1 (Q15788 whole entry, further chain): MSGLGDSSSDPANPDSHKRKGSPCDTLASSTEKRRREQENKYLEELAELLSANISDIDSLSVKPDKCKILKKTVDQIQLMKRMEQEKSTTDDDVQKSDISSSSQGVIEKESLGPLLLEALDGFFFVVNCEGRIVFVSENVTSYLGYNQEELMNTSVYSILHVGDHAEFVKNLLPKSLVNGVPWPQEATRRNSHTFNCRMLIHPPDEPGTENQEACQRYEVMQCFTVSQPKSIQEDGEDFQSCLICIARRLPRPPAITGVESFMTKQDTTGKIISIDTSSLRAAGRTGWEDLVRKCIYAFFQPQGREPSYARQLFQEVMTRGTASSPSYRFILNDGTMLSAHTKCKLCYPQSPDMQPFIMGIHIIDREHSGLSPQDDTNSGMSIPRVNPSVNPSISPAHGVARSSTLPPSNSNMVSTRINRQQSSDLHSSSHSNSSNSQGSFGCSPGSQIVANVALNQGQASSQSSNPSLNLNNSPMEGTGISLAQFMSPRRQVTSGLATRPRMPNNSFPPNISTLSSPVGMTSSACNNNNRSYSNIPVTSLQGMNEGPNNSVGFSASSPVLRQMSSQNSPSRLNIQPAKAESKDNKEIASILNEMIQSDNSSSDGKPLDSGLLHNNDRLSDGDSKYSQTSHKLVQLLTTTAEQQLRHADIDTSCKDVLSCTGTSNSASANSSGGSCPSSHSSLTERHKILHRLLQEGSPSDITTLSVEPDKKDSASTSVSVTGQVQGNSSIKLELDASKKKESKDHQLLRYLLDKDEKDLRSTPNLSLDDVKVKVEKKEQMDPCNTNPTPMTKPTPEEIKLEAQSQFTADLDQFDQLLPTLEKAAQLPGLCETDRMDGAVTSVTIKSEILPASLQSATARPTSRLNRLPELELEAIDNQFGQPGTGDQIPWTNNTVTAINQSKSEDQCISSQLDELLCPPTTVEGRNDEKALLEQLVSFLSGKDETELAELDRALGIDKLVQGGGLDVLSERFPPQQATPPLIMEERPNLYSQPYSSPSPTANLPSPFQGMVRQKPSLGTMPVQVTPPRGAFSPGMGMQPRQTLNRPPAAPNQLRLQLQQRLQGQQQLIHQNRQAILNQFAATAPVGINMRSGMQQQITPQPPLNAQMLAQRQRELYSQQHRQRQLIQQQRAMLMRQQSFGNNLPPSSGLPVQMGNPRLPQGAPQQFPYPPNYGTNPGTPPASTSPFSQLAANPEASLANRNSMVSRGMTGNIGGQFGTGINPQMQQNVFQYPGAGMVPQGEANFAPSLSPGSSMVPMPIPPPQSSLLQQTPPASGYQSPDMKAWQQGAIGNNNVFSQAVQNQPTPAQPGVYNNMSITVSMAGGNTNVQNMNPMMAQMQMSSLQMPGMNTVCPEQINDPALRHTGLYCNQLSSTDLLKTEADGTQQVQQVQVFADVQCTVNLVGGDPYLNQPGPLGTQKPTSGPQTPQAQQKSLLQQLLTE

Structure (SMILES): Cc1ccc2nc(-c3ccccc3Cl)cc(C(=O)Nc3cc(C)on3)c2c1
- EC50 [1]: > 160 µM (inactive)
- EC50 [2]: 3.33 µM (active)
- IC50 [3]: 45.5 µM (active)

Structure (SMILES): Cc1cccc(Cn2c(O)c(N=NC(S)=Nc3ccccc3F)c3ccccc32)c1
- EC50 [4]: 0.663 µM (active)
- EC50 [5]: 1.09 µM (active)
- EC50 [6]: 2.68 µM (active)

Structure (SMILES): O=C(COC(=O)c1ccccc1C(=O)c1ccccc1)NCCc1ccccc1
- EC50 [7]: > 79.4 µM (not active)
- EC50 [8]: > 79.4 µM (not active)
- EC50 [9]: > 79.4 µM (not active)
- EC50 [10]: > 260 µM (inactive)

Structure (SMILES): Cc1cc(C(=O)COC(=O)CN2C(=O)NC(C)(C)C2=O)c(C)n1Cc1ccccc1
- EC50 [11]: > 30 µM (not active)

Structure (SMILES): O=C1NC(=O)[C@]2(Cc3ccccc3N3CCN(c4ccccc4)CC32)C(=O)N1c1ccccc1 (some centres undefined)
- IC50 [12]: 54 µM (inactive)

Structure (SMILES): COc1ccc(-n2cc(CNCCc3nc(C)c[nH]3)c(-c3ccccc3Cl)n2)cc1
- EC50 [13]: 66.1 µM (not active)
- EC50 [14]: 5.96 µM (active)

Structure (SMILES): Cc1nnc2sc(-c3csc4c3CCCC4)nn12
- AC50 [15]: 26.3 µM (active)
- AC50 [16]: 73.6 µM (active)

Structure (SMILES): COc1ccc(C[C@H]2c3cc(OC)c(OC)cc3CCN2C)cc1OC
- AC50 [17]: 12.6 µM (inconclusive)
- AC50 [18]: 6.31 µM (inconclusive)

Structure (SMILES): Cc1cc(C(=O)CN2CCN(C(=O)c3ccco3)CC2)c(C)n1Cc1ccccc1
- EC50 [11]: > 30 µM (not active)
